From patent US10988459B2 (priority 2015, dated 2021)

What follows are compounds tested against human RIP1 kinase domain (2-375) (Homo sapiens (Human), UniProt Q13546) (assay: biochemical). Details: Table 3; apparent Ki (Morrison tight-binding fit); 50 nM RIP1 kinase domain, 50 uM ATP, 2 hours incubation; read-out: Ki.
Type: biochemical
Summary of the method: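 50 nM purified kinase domain from baculovirus-infected insect cells, incubated 2 h with compound in 50 mM Hepes pH 7.5, 30 mM MgCl2, 1 mM DTT, 50 uM ATP, 0.002% Brij-35, 0.5% DMSO. ADP formation read by Transcreener FP at 633 nm excitation. Ki^app fitted with the Morrison tight-binding equation.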

Sequence of human RIP1 kinase domain (2-375) (Q13546 2-375): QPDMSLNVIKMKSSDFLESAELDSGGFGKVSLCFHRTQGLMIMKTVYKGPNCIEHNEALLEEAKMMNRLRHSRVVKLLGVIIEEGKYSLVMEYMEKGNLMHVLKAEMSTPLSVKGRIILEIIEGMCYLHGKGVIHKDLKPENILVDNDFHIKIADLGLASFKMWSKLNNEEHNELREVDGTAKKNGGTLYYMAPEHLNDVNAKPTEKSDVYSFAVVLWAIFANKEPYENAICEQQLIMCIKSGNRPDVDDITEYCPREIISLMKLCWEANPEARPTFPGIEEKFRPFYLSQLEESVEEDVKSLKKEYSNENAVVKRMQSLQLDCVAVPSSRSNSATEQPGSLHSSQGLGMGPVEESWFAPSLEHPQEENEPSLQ

Row | SMILES | Ki
1 | Cc1cc2n(n1)CCC(NC(=O)c1ncn(Cc3ccccc3)n1)C(=O)N2C (centres unmarked) [Example 333, 1-benzyl-N-(2,4-dimethyl-5-oxo-5,6,7,8-tetrahydro-4H-pyrazolo[1,5-a][1,3]diazepin-6-yl)-1H-1,2,4-triazole-3-carboxamide] | 68 nM
2 | CN1C(=O)[C@@H](NC(=O)c2ncn(Cc3ccccc3)n2)CCn2nccc21 [Example 334, (S)-1-benzyl-N-(4-methyl-5-oxo-5,6,7,8-tetrahydro-4H-pyrazolo[1,5-a][1,3]diazepin-6-yl)-1H-1,2,4-triazole-3-carboxamide] | 27 nM
3 | CCC1CCc2n[nH]c(C(=O)N[C@H]3COc4ccccc4N(C)C3=O)c2C1 (stereo partly drawn) [Example 335, 5-ethyl-N-((S)-5-methyl-4-oxo-2,3,4,5-tetrahydrobenzo[b][1,4]oxazepin-3-yl)-4,5,6,7-tetrahydro-2H-indazole-3-carboxamide] | 13 nM
4 | CN1C(=O)[C@@H](NC(=O)c2ncn3ccc(C(F)(F)F)cc23)CCn2nccc21 [Example 336, (S)-N-(4-methyl-5-oxo-5,6,7,8-tetrahydro-4H-pyrazolo[1,5-a][1,3]diazepin-6-yl)-7-(trifluoromethyl)imidazo[1,5-a]pyridine-1-carboxamide] | 231 nM
5 | CN1C(=O)[C@@H](NC(=O)c2n[nH]c3ccc(Cl)cc23)COc2ccccc21 [Example 338, (S)-5-chloro-N-(5-methyl-4-oxo-2,3,4,5-tetrahydrobenzo[b][1,4]oxazepin-3-yl)-1H-indazole-3-carboxamide] | 21 nM

Same assay, conditions: human RIP1 kinase domain (2-375), Transcreener ADP assay, 50 uM ATP, 2 hours incubation; read-out: RIP1 Ki

Row | SMILES | Ki
6 | CN1C(=O)[C@@H](NC(=O)c2cc(C3(O)CCCC3)ccn2)COc2ccccc21 [Example 328, (S)-4-(1-hydroxycyclopentyl)-N-(5-methyl-4-oxo-2,3,4,5-tetrahydrobenzo[b][1,4]oxazepin-3-yl)picolinamide] | 990 nM
7 | Cc1cc2n(n1)CC[C@@H](NC(=O)c1nnc(Cc3ccc(F)cc3)[nH]1)C(=O)N2C [Example 329, (R)—N-(2,4-dimethyl-5-oxo-5,6,7,8-tetrahydro-4H-pyrazolo[1,5-a][1,3]diazepin-6-yl)-5-(4-fluorobenzyl)-4H-1,2,4-triazole-3-carboxamide] | 3810 nM
8 | Cc1nn2c(c1C)N(C)C(=O)[C@@H](NC(=O)c1nnc(Cc3ccc(F)cc3)[nH]1)CC2 [Example 330, (S)-5-(4-fluorobenzyl)-N-(2,3,4-trimethyl-5-oxo-5,6,7,8-tetrahydro-4H-pyrazolo[1,5-a][1, 3]diazepin-6-yl)-4H-1,2,4-triazole-3-carboxamide] | 103 nM
9 | CN1C(=O)[C@@H](NC(=O)c2ncn(Cc3cccc(F)c3F)n2)CCn2nc(C3CC3)cc21 [Example 331, (S)—N-(2-cyclopropyl-4-methyl-5-oxo-5,6,7,8-tetrahydro-4H-pyrazolo[1,5-a][1,3]diazepin-6-yl)-1-(2,3-difluorobenzyl)-1H-1,2,4-triazole-3-carboxamide] | 13 nM
10 | CN1C(=O)[C@@H](NC(=O)c2nnc(Cc3ccc(F)cc3)[nH]2)CCn2nc(C3CC3)cc21 [Example 332, (S)—N-(2-cyclopropyl-4-methyl-5-oxo-5,6,7,8-tetrahydro-4H-pyrazolo[1,5-a][1,3]diazepin-6-yl)-5-(4-fluorobenzyl)-4H-1,2,4-triazole-3-carboxamide] | 88 nM

Same assay, conditions: tight-binding apparent inhibition constant; human RIP1 kinase domain (2-375) 50 nM, 50 uM ATP, 2 hours; read-out: Ki

Row | SMILES | Ki
11 | CN1C(=O)[C@@H](NC(=O)c2ncn(Cc3c(F)cccc3F)n2)CCn2nccc21 [Example 343, 1-[(2,6-difluorophenyl)methyl]-N-[(6S)-4-methyl-5-oxo-7,8-dihydro-6H-pyrazolo[1,5-a][1,3]diazepin-6-yl]-1,2,4-triazole-3-carboxamide] | 9.73 nM
12 | CN1C(=O)[C@@H](NC(=O)c2nc3n(n2)[C@H](C(F)(F)F)CC3)CCn2nccc21 [Example 344, (5S)—N-[(6S)-4-methyl-5-oxo-7,8-dihydro-6H-pyrazolo[1,5-a][1,3]diazepin-6-yl]-5-(trifluoromethyl)-6,7-dihydro-5H-pyrrolo[1,2-b][1,2,4]triazole-2-carboxamide] | 226 nM
13 | Cc1cc(F)c2c(c1)OC[C@H](NC(=O)c1nc3n(n1)C(C(C)C)CC3)C(=O)N2 (stereo partly drawn) [Example 345, N-[(3S)-6-fluoro-8-methyl-4-oxo-3,5-dihydro-2H-1,5-benzoxazepin-3-yl]-5-isopropyl-6,7-di hydro-5H-pyrrolo[1,2-b][1,2,4]triazole-2-carboxamide] | 20 nM
14 | CC(C)C1CCc2nc(C(=O)N[C@H]3CCn4nccc4N(C)C3=O)nn21 (stereo partly drawn) [Example 346, 5-isopropyl-N-[(6S)-4-methyl-5-oxo-7,8-dihydro-6H-pyrazolo[1,5-a][1,3]diazepin-6-yl]-6,7-dihydro-5H-pyrrolo[1,2-b][1,2,4]triazole-2-carboxamide] | 175 nM
15 | Cc1cc(F)c2c(c1)OC[C@H](NC(=O)c1nc3n(n1)[C@H](C(F)(F)F)CC3)C(=O)N2 [Example 347, (5S)—N-[(3S)-6-fluoro-8-methyl-4-oxo-3,5-dihydro-2H-1,5-benzoxazepin-3-yl]-5-(trifluoromethyl)-6,7-dihydro-5H-pyrrolo[1,2-b][1,2,4]triazole-2-carboxamide] | 4.91 nM
16 | O=C(N[C@H]1COc2cc(F)cc(F)c2NC1=O)c1nc2n(n1)[C@H](C(F)(F)F)CC2 [Example 348, (5S)—N-[(3S)-6,8-difluoro-4-oxo-3,5-dihydro-2H-1,5-benzoxazepin-3-yl]-5-(trifluoromethyl)-6,7-dihydro-5H-pyrrolo[1,2-b][1,2,4]triazole-2-carboxamide] | 13.8 nM
17 | CCC1CCc2nc(C(=O)N[C@H]3COc4cc(C)cc(F)c4NC3=O)nn21 (stereo partly drawn) [Example 349, 5-ethyl-N-[(3S)-6-fluoro-8-methyl-4-oxo-3,5-dihydro-2H-1,5-benzoxazepin-3-yl]-6,7-dihydro-5H-pyrrolo[1,2-b][1,2,4]triazole-2-carboxamide] | 33.5 nM
18 | CN1C(=O)[C@@H](NC(=O)c2nc3n(n2)[C@H](C(F)(F)F)CC3)COc2ccccc21 [Example 350, (5S)—N-[(3S)-5-methyl-4-oxo-2,3-dihydro-1,5-benzoxazepin-3-yl]-5-(trifluoromethyl)-6,7-dihydro-5H-pyrrolo[1,2-b][1,2,4]triazole-2-carboxamide] | 19.4 nM
19 | CCC1CCc2nc(C(=O)N[C@H]3CCn4nccc4N(C)C3=O)nn21 (stereo partly drawn) [Example 351, 5-ethyl-N-[(6S)-4-methyl-5-oxo-7,8-dihydro-6H-pyrazolo[1,5-a][1,3]diazepin-6-yl]-6,7-di hydro-5H-pyrrolo[1,2-b][1,2,4]triazole-2-carboxamide] | 394 nM
20 | CCC1CCc2nc(C(=O)N[C@H]3COc4ccccc4N(C)C3=O)nn21 (stereo partly drawn) [Example 355, 5-ethyl-N-[(3S)-5-methyl-4-oxo-2,3-dihydro-1,5-benzoxazepin-3-yl]-6,7-dihydro-5H-pyrrolo[1,2-b][1,2,4]triazole-2-carboxamide] | 52.1 nM
21 | CN1C(=O)[C@@H](NC(=O)c2cc3c(cn2)cnn3C(F)(F)F)COc2ccccc21 [Example 356, (S)—N-(5-methyl-4-oxo-2,3,4,5-tetrahydrobenzo[b][1,4]oxazepin-3-yl)-1-(trifluoromethyl)-1H-pyrazolo[4,3-c]pyridine-6-carboxamide] | 7.02 nM
22 | O=C(N[C@H]1CCc2cc(F)cc(F)c2NC1=O)c1nc2n(n1)[C@H](C(F)(F)F)CC2 [Example 357, (5S)—N-[(3S)-7,9-difluoro-2-oxo-1,3,4,5-tetrahydro-1-benzazepin-3-yl]-5-(trifluoromethyl)-6,7-dihydro-5H-pyrrolo[1,2-b][1,2,4]triazole-2-carboxamide] | 46.1 nM
23 | CN1C(=O)[C@@H](NC(=O)c2ncc3cnn(C(F)(F)F)c3n2)COc2ccccc21 [Example 360, N-[(3S)-5-methyl-4-oxo-2,3-dihydro-1,5-benzoxazepin-3-yl]-1-(trifluoromethyl)pyrazolo[3,4-d]pyrimidine-6-carboxamide] | 10.4 nM
24 | CN1C(=O)[C@@H](NC(=O)c2nc3n(n2)C(c2nccn2C)CC3)COc2ccccc21 (stereo partly drawn) [Example 361, 5-(1-methylimidazol-2-yl)-N-[(3S)-5-methyl-4-oxo-2,3-dihydro-1,5-benzoxazepin-3-yl]-6,7-dihydro-5H-pyrrolo[1,2-b][1,2,4]triazole-2-carboxamide] | 511 nM
25 | CC(=O)c1cc2n(n1)CC[C@H](NC(=O)c1ncn(Cc3ccccc3)n1)C(=O)N2C [Example 366, (S)—N-(2-acetyl-4-methyl-5-oxo-5,6,7,8-tetrahydro-4H-pyrazolo[1,5-a][1,3]diazepin-6-yl)-1-benzyl-1H-1,2,4-triazole-3-carboxamide] | 17.3 nM
26 | CN1C(=O)[C@@H](NC(=O)c2nc3cccc(-c4ccccc4)n3n2)COc2ccccc21 [Example 373, (S)—N-(5-methyl-4-oxo-2,3,4,5-tetrahydrobenzo[b][1,4]oxazepin-3-yl)-5-phenyl-[1,2,4]triazolo[1,5-a]pyridine-2-carboxamide] | 4.3 nM
27 | CCc1cccc2nc(C(=O)N[C@H]3CCn4nccc4N(C)C3=O)nn12 [Example 374, (S)-5-ethyl-N-(4-methyl-5-oxo-5,6,7,8-tetrahydro-4H-pyrazolo[1,5-a][1,3]diazepin-6-yl)-[1,2,4]triazolo[1,5-a]pyridine-2-carboxamide] | 269 nM
28 | CN1C(=O)[C@@H](NC(=O)c2nc3cccc(-c4ccccc4)n3n2)CCn2nccc21 [Example 375, (S)—N-(4-methyl-5-oxo-5,6,7,8-tetrahydro-4H-pyrazolo[1,5-a][1,3]diazepin-6-yl)-5-phenyl-[1,2,4]triazolo[1,5-a]pyridine-2-carboxamide] | 28 nM
29 | CN1C(=O)[C@@H](NC(=O)c2nc3n(n2)C(c2ccccc2)CCC3)COc2ccccc21 (stereo partly drawn) [Example 376, N—((S)-5-methyl-4-oxo-2,3,4,5-tetrahydrobenzo[b][1,4]oxazepin-3-yl)-5-phenyl-5,6,7,8-tetrahydro-[1,2,4]triazolo[1,5-a]pyridine-2-carboxamide] | 42.3 nM
